According to patent publication US12692238B2, “Substituted pyridazinone herbicides” (FMC CORPORATION, priority 2020, dated 2026):

Legend:
Assay type in all cases: in vivo
[1] = test system: wheat (Triticum aestivum); experiment: Test A preemergence, wheat; conditions: 125 g ai/ha, 0 to 100 scale, 10 days
[2] = test system: goosegrass (Eleusine indica); experiment: Test A postemergence, goosegrass; conditions: 10 days
Source text: (§1) Seeds of plant species selected from barnyardgrass (Echinochloa crus-galli), blackgrass (Alopecurus myosuroides), corn (Zea mays), foxtail, giant (giant foxtail, Setaria faberi), foxtail, green (green foxtail, Setaria viridis), goosegrass (Eleusine indica), kochia (Bassia scoparia), oat, wild (wild oat, Avena fatua), palmer amaranth (pigweed, palmer, Amaranthus palmeri), redroot pigweed (Amaranthus retroflexus), ragweed (common ragweed, Ambrosia artemisiifolia), ryegrass, Italian (Italian ryegrass, Lolium multiflorum), and soybean (Glycine max) were planted into a blend of loam soil and sand and treated preemergence with a directed soil spray using test chemicals formulated in a non-phytotoxic solvent mixture which included a surfactant.
(§2) At the same time, plants selected from these crop and weed species and also wheat (Triticum aestivum), galium (catchweed bedstraw, Galium aparine) and horseweed (Erigeron canadensis) were planted in pots containing the same blend of loam soil and sand and treated with postemergence applications of test chemicals formulated in the same manner. Plants ranged in height from 2 to 10 cm and were in the one- to two-leaf stage for the postemergence treatment. Treated plants and untreated controls were maintained in a greenhouse for 10 days, after which time all treated plants were compared to untreated controls and visually evaluated for injury. Plant response ratings, summarized in Table A, are based on a 0 to 100 scale where 0 is no effect and 100 is complete control. A dash (-) response means no test result.

[3] = test system: barnyardgrass (Echinochloa crus-galli); experiment: Test B flooded paddy test, barnyardgrass; conditions: 250 g ai/ha, Flood; visually evaluated after 10 to 14 days
Procedure, shortened: (§3)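 2-leaf plants; pots flooded to 3 cm; compound applied to paddy water; depth kept constant; greenhouse 10–14 d; visual rating vs untreated, 0 = no effect, 100 = complete control.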

[4] = test system: goosegrass (Eleusine indica); experiment: Test A preemergence, goosegrass; conditions: 0 to 100 scale, 10 days
Source text: as §1, §2

[5] = test system: palmer amaranth (pigweed, palmer, Amaranthus palmeri); experiment: Test A postemergence, palmer amaranth; conditions: 10 days
Source text: as §1, §2

[6] = test system: wheat (Triticum aestivum); experiment: Test A postemergence, wheat; conditions: 10 days
Procedure, shortened: (§4)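 Greenhouse herbicide screen: seeded pots sprayed on soil (preemergence) or seedlings at one- to two-leaf stage, 2 to 10 cm (postemergence). Evaluation 10 days later by eye against controls; 100 means complete control, 0 no effect.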

[7] = test system: sedge, umbrella (small-flower umbrella sedge, Cyperus difformis); experiment: Test B flooded paddy test, sedge, umbrella; conditions: 250 g ai/ha, Flood; visually evaluated after 10 to 14 days
Procedure, shortened: as §3

[8] = test system: oat, wild (wild oat, Avena fatua); experiment: Test A postemergence, oat, wild; conditions: 10 days
Source text: as §1, §2

[9] = test system: foxtail, giant (giant foxtail, Setaria faberi); experiment: Test A postemergence, foxtail, giant; conditions: 10 days
Procedure, shortened: as §4

kochia (Bassia scoparia) [10] = experiment: Test A preemergence, kochia; conditions: 0 to 100 scale, 10 days
Procedure, shortened: as §4

[11] = test system: blackgrass (Alopecurus myosuroides); experiment: Test A preemergence, blackgrass; conditions: 0 to 100 scale, 10 days
Source text: as §1, §2

[12] = test system: horseweed (Erigeron canadensis); experiment: Test A postemergence, horseweed; conditions: 10 days
Source text: as §1, §2

[13] = test system: foxtail, giant (giant foxtail, Setaria faberi); experiment: Test A preemergence, foxtail, giant; conditions: 0 to 100 scale, 10 days
Procedure, shortened: as §4

[14] = test system: galium (catchweed bedstraw, Galium aparine); experiment: Test A postemergence, galium; conditions: 10 days
Procedure, shortened: as §4

[15] = test system: blackgrass (Alopecurus myosuroides); experiment: Test A postemergence, blackgrass; conditions: 10 days
Procedure, shortened: as §4

[16] = test system: ryegrass, Italian (Italian ryegrass, Lolium multiflorum); experiment: Test A postemergence, ryegrass, Italian; conditions: 10 days
Procedure, shortened: as §4

rice (Oryza sativa) = experiment: Test B flooded paddy test, rice; conditions: 250 g ai/ha, Flood; visually evaluated after 10 to 14 days
Procedure, shortened: as §3

soybean (Glycine max) [17] = experiment: Test A postemergence, soybean; conditions: 10 days
Source text: as §1, §2

[18] = test system: ragweed (common ragweed, Ambrosia artemisiifolia); experiment: Test A postemergence, ragweed; conditions: 10 days
Procedure, shortened: as §4

corn (Zea mays) [19] = experiment: Test A preemergence, corn; conditions: 0 to 100 scale, 10 days
Source text: as §1, §2

[20] = test system: ragweed (common ragweed, Ambrosia artemisiifolia); experiment: Test A preemergence, ragweed; conditions: 0 to 100 scale, 10 days
Procedure, shortened: as §4

[21] = test system: ryegrass, Italian (Italian ryegrass, Lolium multiflorum); experiment: Test A preemergence, ryegrass, Italian; conditions: 0 to 100 scale, 10 days
Procedure, shortened: as §4

corn (Zea mays) [22] = experiment: Test A postemergence, corn; conditions: 10 days
Procedure, shortened: as §4

soybean (Glycine max) [23] = experiment: Test A preemergence, soybean; conditions: 0 to 100 scale, 10 days
Source text: as §1, §2

[24] = test system: oat, wild (wild oat, Avena fatua); experiment: Test A preemergence, oat, wild; conditions: 0 to 100 scale, 10 days
Source text: as §1, §2

[25] = test system: ducksalad (Heteranthera limosa); experiment: Test B flooded paddy test, ducksalad; conditions: 250 g ai/ha, Flood; visually evaluated after 10 to 14 days
Procedure, shortened: as §3

kochia (Bassia scoparia) [26] = experiment: Test A postemergence, kochia; conditions: 10 days
Procedure, shortened: as §4

[27] = test system: palmer amaranth (pigweed, palmer, Amaranthus palmeri); experiment: Test A preemergence, palmer amaranth; conditions: 0 to 100 scale, 10 days
Source text: as §1, §2

[28] = 31 g ai/ha, postemergence, 0 to 100 scale (0 no effect, 100 complete control)
[29] = Postemergence, 125 g ai/ha, 0 to 100 scale

Cc1ccc2cc3ccc(F)cc3c(-c3c(OCOC(=O)C(C)(C)C)c(C)nn(C)c3=O)c2c1 [Compound 21]
Plant response rating, Wheat [1]: 0 | Plant response rating, Goosegrass [2, 28]: 20 | Plant response rating, Goosegrass [2, 29]: 30 | Plant response rating, Barnyardgrass (0 to 100 scale where 0 is no effect and 100 is complete control) [3]: 98 | Plant response rating, Goosegrass ([4]; 31 g ai/ha): 40 | Plant response rating, Goosegrass ([4]; 125 g ai/ha): 60 | Plant response rating, Pigweed, Palmer [5, 28]: 100 | Plant response rating, Pigweed, Palmer [5, 29]: 100 | Plant response rating, Wheat [6, 28]: 0 | Plant response rating, Wheat [6, 29]: 0 | Plant response rating, Sedge, Umbrella (0 to 100 scale where 0 is no effect and 100 is complete control) [7]: 100 | Plant response rating, Oat, Wild [8, 28]: 10 | Plant response rating, Oat, Wild [8, 29]: 40 | Plant response rating, Foxtail, Giant [9, 28]: 90 | Plant response rating, Foxtail, Giant [9, 29]: 100 | Plant response rating, Kochia (kochia (Bassia scoparia) [10]; 31 g ai/ha): 100 | Plant response rating, Kochia (kochia (Bassia scoparia) [10]; 125 g ai/ha): 100 | Plant response rating, Blackgrass ([11]; 31 g ai/ha): 0 | Plant response rating, Blackgrass ([11]; 125 g ai/ha): 40 | Plant response rating, Horseweed [12, 28]: 100 | Plant response rating, Horseweed [12, 29]: 100 | Plant response rating, Foxtail, Giant ([13]; 31 g ai/ha): 80 | Plant response rating, Foxtail, Giant ([13]; 125 g ai/ha): 100 | Plant response rating, Galium [14, 28]: 100 | Plant response rating, Galium [14, 29]: 100 | Plant response rating, Blackgrass [15, 28]: 20 | Plant response rating, Blackgrass [15, 29]: 20 | Plant response rating, Ryegrass, Italian [16, 28]: 80 | Plant response rating, Ryegrass, Italian [16, 29]: 100 | Plant response rating, Rice (0 to 100 scale where 0 is no effect and 100 is complete control) (rice (Oryza sativa)): 60 | Plant response rating, Soybean (soybean (Glycine max) [17]; [28]): 100 | Plant response rating, Soybean (soybean (Glycine max) [17]; [29]): 100 | Plant response rating, Ragweed [18, 28]: 100 | Plant response rating, Ragweed [18, 29]: 100 | Plant response rating, Corn (corn (Zea mays) [19]; 31 g ai/ha): 0 | Plant response rating, Corn (corn (Zea mays) [19]; 125 g ai/ha): 0 | Plant response rating, Ragweed ([20]; 31 g ai/ha): 50 | Plant response rating, Ragweed ([20]; 125 g ai/ha): 90 | Plant response rating, Ryegrass, Italian ([21]; 31 g ai/ha): 40 | Plant response rating, Ryegrass, Italian ([21]; 125 g ai/ha): 90 | Plant response rating, Corn (corn (Zea mays) [22]; [28]): 30 | Plant response rating, Corn (corn (Zea mays) [22]; [29]): 40 | Plant response rating, Soybean (soybean (Glycine max) [23]; 31 g ai/ha): 0 | Plant response rating, Soybean (soybean (Glycine max) [23]; 125 g ai/ha): 0 | Plant response rating, Oat, Wild ([24]; 31 g ai/ha): 0 | Plant response rating, Oat, Wild ([24]; 125 g ai/ha): 40 | Plant response rating, Ducksalad (0 to 100 scale where 0 is no effect and 100 is complete control) [25]: 100 | Plant response rating, Kochia (kochia (Bassia scoparia) [26]; [28]): 90 | Plant response rating, Kochia (kochia (Bassia scoparia) [26]; [29]): 100 | Plant response rating, Pigweed, Palmer ([27]; 31 g ai/ha): 100 | Plant response rating, Pigweed, Palmer ([27]; 125 g ai/ha): 100

Cc1ccc2cc3ccc(F)cc3c(-c3c(OCOC(=O)N(C)C)c(C)nn(C)c3=O)c2c1 [Compound 16]
Plant response rating, Wheat [1]: 0 | Plant response rating, Goosegrass [2, 28]: 0 | Plant response rating, Goosegrass [2, 29]: 0 | Plant response rating, Barnyardgrass (0 to 100 scale where 0 is no effect and 100 is complete control) [3]: 0 | Plant response rating, Goosegrass ([4]; 31 g ai/ha): 0 | Plant response rating, Goosegrass ([4]; 125 g ai/ha): 0 | Plant response rating, Pigweed, Palmer [5, 28]: 100 | Plant response rating, Pigweed, Palmer [5, 29]: 60 | Plant response rating, Wheat [6, 28]: 0 | Plant response rating, Wheat [6, 29]: 0 | Plant response rating, Sedge, Umbrella (0 to 100 scale where 0 is no effect and 100 is complete control) [7]: 0 | Plant response rating, Oat, Wild [8, 28]: 0 | Plant response rating, Oat, Wild [8, 29]: 0 | Plant response rating, Foxtail, Giant [9, 28]: 0 | Plant response rating, Foxtail, Giant [9, 29]: 20 | Plant response rating, Kochia (kochia (Bassia scoparia) [10]; 31 g ai/ha): 0 | Plant response rating, Kochia (kochia (Bassia scoparia) [10]; 125 g ai/ha): 0 | Plant response rating, Blackgrass ([11]; 31 g ai/ha): 0 | Plant response rating, Blackgrass ([11]; 125 g ai/ha): 0 | Plant response rating, Horseweed [12, 28]: 10 | Plant response rating, Horseweed [12, 29]: 10 | Plant response rating, Foxtail, Giant ([13]; 31 g ai/ha): 0 | Plant response rating, Foxtail, Giant ([13]; 125 g ai/ha): 0 | Plant response rating, Galium [14, 28]: 0 | Plant response rating, Galium [14, 29]: 50 | Plant response rating, Blackgrass [15, 28]: 0 | Plant response rating, Blackgrass [15, 29]: 0 | Plant response rating, Ryegrass, Italian [16, 28]: 0 | Plant response rating, Ryegrass, Italian [16, 29]: 0 | Plant response rating, Rice (0 to 100 scale where 0 is no effect and 100 is complete control) (rice (Oryza sativa)): 0 | Plant response rating, Soybean (soybean (Glycine max) [17]; [28]): 10 | Plant response rating, Soybean (soybean (Glycine max) [17]; [29]): 30 | Plant response rating, Ragweed [18, 28]: 10 | Plant response rating, Ragweed [18, 29]: 30 | Plant response rating, Corn (corn (Zea mays) [19]; 31 g ai/ha): 0 | Plant response rating, Corn (corn (Zea mays) [19]; 125 g ai/ha): 0 | Plant response rating, Ragweed ([20]; 31 g ai/ha): 0 | Plant response rating, Ragweed ([20]; 125 g ai/ha): 0 | Plant response rating, Ryegrass, Italian ([21]; 31 g ai/ha): 0 | Plant response rating, Ryegrass, Italian ([21]; 125 g ai/ha): 0 | Plant response rating, Corn (corn (Zea mays) [22]; [28]): 0 | Plant response rating, Corn (corn (Zea mays) [22]; [29]): 0 | Plant response rating, Soybean (soybean (Glycine max) [23]; 31 g ai/ha): 0 | Plant response rating, Soybean (soybean (Glycine max) [23]; 125 g ai/ha): 0 | Plant response rating, Oat, Wild ([24]; 31 g ai/ha): 0 | Plant response rating, Oat, Wild ([24]; 125 g ai/ha): 0 | Plant response rating, Ducksalad (0 to 100 scale where 0 is no effect and 100 is complete control) [25]: 0 | Plant response rating, Kochia (kochia (Bassia scoparia) [26]; [28]): 60 | Plant response rating, Kochia (kochia (Bassia scoparia) [26]; [29]): 80 | Plant response rating, Pigweed, Palmer ([27]; 31 g ai/ha): 10 | Plant response rating, Pigweed, Palmer ([27]; 125 g ai/ha): 0
